Where two headings read alike, the source gives them in different places.
Legend:
COLO 205 = assay: NCI SRB screening; type: cell-based, human
HCC-2998 = assay: NCI SRB screening; type: cell-based, human
LOX IMVI = assay: NCI SRB screening; type: cell-based, human
M14 = assay: NCI SRB screening; type: cell-based
PC-3 = assay: NCI SRB screening; type: cell-based, human
HCT-116 = assay: SRB anti-proliferative assay; type: cell-based; conditions: Homo sapiens; HCT-116, SRB, mean ± SE of 3
MDA-MB-231 = assay: SRB anti-proliferative assay; type: cell-based; conditions: Homo sapiens; MDA-MB-231, SRB, mean ± SE of 3
K-562 = conditions: for TGI: K-562
HOP-62 = conditions: for TGI: HOP-62
NCI-H226 = conditions: for TGI: NCI-H226
NCI-H522 = conditions: for TGI: NCI-H522
HT29 = conditions: for TGI: HT29
KM12 = conditions: for TGI: KM12
SW-620 = conditions: for TGI: SW-620
SF-268 = conditions: for TGI: SF-268
SF-295 = conditions: for TGI: SF-295
SF-539 = conditions: for TGI: SF-539
SNB-19 = conditions: for TGI: SNB-19
U251 = conditions: for TGI: U251

With CCCn1cc(C=NN=C2C(=O)Nc3ccc(C)cc32)c2ccccc21 [Compound 8a] the TGI (COLO 205; COLO 205) was 3.06 µM, the GI % (COLO 205; COLO 205, 10 μM) was 116% and the “Growth Percent” value (COLO 205; COLO 205, 1.00E-5 Molar) was -16.20%. It also gave a TGI (COLO 205; COLO 205, listed as D - 795311 / 1) of 3.06E-6 Molar, a GI50 (COLO 205; Homo sapiens, COLO 205) of 1.25 µM and a TGI (HCC-2998; HCC-2998) of 5.14 µM. For the same compound, the GI % (HCC-2998; HCC-2998, 10 μM) was 53%, the “Growth Percent” value (HCC-2998; HCC-2998, 1.00E-5 Molar) was 46.95% and the TGI (HCC-2998; HCC-2998, listed as D - 795311 / 1) was 5.14E-6 Molar. The GI50 (HCC-2998; Homo sapiens, HCC-2998) was 2.09 µM, the TGI (LOX IMVI) was 3.06 µM and the “Growth Percent” value (LOX IMVI; 1.00E-5 Molar) was 4.42%. The GI50 (LOX IMVI; Homo sapiens) was 1.26 µM, the TGI (LOX IMVI; listed as D - 795311 / 1) was 3.06E-6 Molar and the GI50 (M14; Homo sapiens, M14) was 1.92 µM. For the same compound, the TGI (M14; M14) was 4.70 µM, the GI % (M14; M14, 10 μM) was 44% and the “Growth Percent” value (M14; M14, 1.00E-5 Molar) was 56.29%. The TGI (M14; M14, listed as D - 795311 / 1) was 4.70E-6 Molar, the GI50 (PC-3; Homo sapiens, PC-3) was 1.83 µM and the TGI (PC-3; PC-3) was 5.17 µM. The GI % (PC-3; PC-3, 10 μM) was 82%, the “Growth Percent” value (PC-3; PC-3, 1.00E-5 Molar) was 17.96% and the TGI (PC-3; PC-3, listed as D - 795311 / 1) was 5.17E-6 Molar. For the same compound, the IC50 (HCT-116) was 2.6 ± 0.17 µM, the IC50 (MDA-MB-231) was 4.7 ± 0.28 µM and the TGI (CCRF-CEM) was over 100 µM. The GI % (CCRF-CEM; 10 μM) was 101%, the “Growth Percent” value (CCRF-CEM; 1.00E-5 Molar) was -0.65% and the TGI (CCRF-CEM; listed as D - 795311 / 1) was over 1.00E-4 Molar. The TGI (K-562) was 20.5 µM, the GI % (K-562; K-562, 10 μM) was 83% and the “Growth Percent” value (K-562; K-562, 1.00E-5 Molar) was 17.61%. It also gave a TGI (K-562; listed as D - 795311 / 1) of 2.05E-5 Molar, a TGI (A549/ATCC) of 39.6 µM and a GI % (A549/ATCC; 10 μM) of 36%. For the same compound, the “Growth Percent” value (A549/ATCC; 1.00E-5 Molar) was 63.93%, the TGI (A549/ATCC; listed as D - 795311 / 1) was 3.96E-5 Molar and the TGI (EKVX) was over 100 µM. The GI % (EKVX; 10 μM) was 50%, the “Growth Percent” value (EKVX; 1.00E-5 Molar) was 50.45% and the TGI (EKVX; listed as D - 795311 / 1) was over 1.00E-4 Molar. The TGI (HOP-62) was 25.0 µM, the GI % (HOP-62; HOP-62, 10 μM) was 25% and the “Growth Percent” value (HOP-62; HOP-62, 1.00E-5 Molar) was 75.35%. The TGI (HOP-62; listed as D - 795311 / 1) was 2.50E-5 Molar, the TGI (NCI-H226) was 20.6 µM and the “Growth Percent” value (NCI-H226; NCI-H226, 1.00E-5 Molar) was 92.04%. The TGI (NCI-H226; listed as D - 795311 / 1) was 2.06E-5 Molar, the TGI (NCI-H522) was 6.59 µM and the GI % (NCI-H522; NCI-H522, 10 μM) was 86%. The “Growth Percent” value (NCI-H522; NCI-H522, 1.00E-5 Molar) was 13.81%, the TGI (NCI-H522; listed as D - 795311 / 1) was 6.59E-6 Molar and the TGI (HT29) was over 100 µM. For the same compound, the GI % (HT29; HT29, 10 μM) was 83%, the “Growth Percent” value (HT29; HT29, 1.00E-5 Molar) was 17.08% and the TGI (HT29; listed as D - 795311 / 1) was over 1.00E-4 Molar. For the same compound, the TGI (KM12) was 19.7 µM, the GI % (KM12; KM12, 10 μM) was 40% and the “Growth Percent” value (KM12; KM12, 1.00E-5 Molar) was 59.92%. It also gave a TGI (KM12; listed as D - 795311 / 1) of 1.97E-5 Molar, a TGI (SW-620) of 35.3 µM and a GI % (SW-620; SW-620, 10 μM) of 64%. The “Growth Percent” value (SW-620; SW-620, 1.00E-5 Molar) was 36.69%, the TGI (SW-620; listed as D - 795311 / 1) was 3.53E-5 Molar and the TGI (SF-268) was 28.0 µM. The GI % (SF-268; SF-268, 10 μM) was 54%, the “Growth Percent” value (SF-268; SF-268, 1.00E-5 Molar) was 46.59% and the TGI (SF-268; listed as D - 795311 / 1) was 2.80E-5 Molar. For the same compound, the TGI (SF-295) was 96.6 µM, the GI % (SF-295; SF-295, 10 μM) was 29% and the “Growth Percent” value (SF-295; SF-295, 1.00E-5 Molar) was 71.12%. For the same compound, the TGI (SF-295; listed as D - 795311 / 1) was 9.66E-5 Molar, the TGI (SF-539) was 17.1 µM and the GI % (SF-539; SF-539, 10 μM) was 66%. The “Growth Percent” value (SF-539; SF-539, 1.00E-5 Molar) was 33.94%, the TGI (SF-539; listed as D - 795311 / 1) was 1.71E-5 Molar and the TGI (SNB-19) was over 100 µM. The GI % (SNB-19; SNB-19, 10 μM) was 37%, the “Growth Percent” value (SNB-19; SNB-19, 1.00E-5 Molar) was 63.34% and the TGI (SNB-19; listed as D - 795311 / 1) was over 1.00E-4 Molar. For the same compound, the TGI (U251) was 17.3 µM, the GI % (U251; U251, 10 μM) was 60% and the “Growth Percent” value (U251; U251, 1.00E-5 Molar) was 39.96%. For the same compound, the TGI (U251; listed as D - 795311 / 1) was 1.73E-5 Molar, the TGI (MALME-3M) was 6.03 µM and the GI % (MALME-3M; 10 μM) was 49%. The “Growth Percent” value (MALME-3M; 1.00E-5 Molar) was 51.68%.

Source: article PMC7717600, “Novel [(N-alkyl-3-indolylmethylene)hydrazono]oxindoles arrest cell cycle and induce cell apoptosis by inhibiting CDK2 and Bcl-2: synthesis, biological evaluation and in silico studies” (Journal of Enzyme Inhibition and Medicinal Chemistry, 2020)
